Earlier results on two molecules are cited in patent publication US12403113B2, “Composition containing creatine fatty ester for use in medicine” (COMMISSARIAT À L'ÉNERGIE ATOMIQUE ET AUX ÉNERGIES …, priority 2019, dated 2025).

For one data set, the system named is CrT−/y mice. Conditions: 0.02 mg/g body/weight/day for 5 days, intracerebroventricular; preliminary.
In data set [1] the test system is Huntington's disease patients. To be noted: 8 g/day for 16 weeks, 64 patients.
The next data set concerns CTD patients. To be noted: pure creatine.
The next data set concerns DMD patients. To be noted: 5 g of creatine/day for 8 weeks, oral.

For the molecule `CCCCCCCCCCCCOC(=O)CN(C)C(=N)N` [DCE, dodecyl creatine ester], in the data set on CrT−/y mice, the “performance in the object recognition task” value was “significantly improves”.

As for `CN(CC(=O)O)C(=N)N` [creatine, 2-1(methylguanidino) acetic acid], the health and longevity result in the data set with mice was “improves health and longevity”. Moreover, the “serum 8-hydroxy-2′-deoxyguanosine (marker of oxidative DNA damage)” value in data set [1] is recorded as “marked decrease”. Besides, the “improvement in CTD patients” value in the data set with CTD patients is reported as “does not lead to any improvement”. In the data set on DMD patients, the “muscle Phosphocreatine/Inorganic Phosphate ratio” value was “significantly improved” and the “muscle strength in short term” value was “preserved”. In the data set on DMD patients (18 patients vs placebo), the tolerability entry is on record as “well tolerated”.
